The values that follow come from article PMC7449217, “The FDA-Approved Drug Nelfinavir Inhibits Lytic Cell-Free but Not Cell-Associated Nonlytic Transmission of Human Adenovirus” (Antimicrobial Agents and Chemotherapy, 2020).

One data set concerns HAdV-B3-pIX-FS2A-GFP. Nature of the data set: fluorescence-based plaque-forming assay, HBEC. It counts as cell-based, human adenovirus. The method, then: (§1) Per 96-well plate, 15,000 A549 cells, 10,000 HeLa cells, 30,000 HBECs, 30,000 HCE cells, or 30,000 CMT-93 cells were seeded in 100 μl of the respective supplemented medium and allowed to settle for 1 h at room temperature (RT) prior to cell culture incubation at 37°C with 5% CO2 and 95% humidity. The following day, the medium was replaced with 50 μl of the respective virus stock dilution giving rise to 5 to 50 plaques per 96-well plate. Fifty microliters of nelfinavir to obtain a 0.1 to 50 μM final concentration or the DMSO solvent control was also added, both in supplemented medium. For each experiment, a noninfected, treated control was performed. For uphill plaque assays, the medium volume was increased to 150 μl with identical virus and drug concentrations. For wash-in/washout experiments, the virus was incubated on cells in supplemented medium for 1 h at 37°C, cells were washed with PBS, and a 100-μl drug dilution in supplemented medium was added. All experiments were performed in four technical replicates or as indicated. Cells were incubated under standard cell culture conditions. At the indicated times postinfection, the cells were fixed, and the nuclei were stained for 1 h at RT by the addition of 33 μl 16% (wt/vol) paraformaldehyde (PFA) and 4 μg/ml Hoechst 33342 (Sigma-Aldrich, St. Louis, MO, USA) in PBS. Cells were washed three times with PBS and stored in PBS supplemented with 0.02% N3 for infections with viruses harboring a GFP transgene. For wild-type (wt) viruses, cells were quenched in PBS supplemented with 50 mM NH4Cl, permeabilized using 0.2% (vol/vol) Triton X-100 in PBS, and blocked with 0.5% (wt/vol) bovine serum albumin (BSA) in PBS. Cells were incubated with 381.7 ng/ml mouse anti-HAdV hexon protein antibody (Mab8052; Sigma-Aldrich, St. Louis, MO, USA) and subsequently stained using 2 μg/ml goat anti-mouse-Alexa Fluor 594 (catalog number A21203 or A32742; Thermo Fisher Scientific, Waltham, MA, USA). Plates were imaged on either an IXM-XL or an IXM-C automated high-throughput fluorescence microscope (Molecular Devices, San Jose, CA, USA) using a 4× objective in wide-field mode. Hoechst staining was recorded in the 4′,6-diamidino-2-phenylindole (DAPI) channel, the fluorescein isothiocyanate (FITC)/GFP channel was acquired for viral GFP, and the tetramethyl rhodamine isothiocyanate (TRITC)/Texas Red channel was acquired for hexon immunofluorescence staining.
(§2) The infection phenotype for each well was quantified using Plaque2.0 ([101]). The number of plaques was determined based on the infection signal (viral GFP or hexon immunofluorescence staining). Nuclei stained with Hoechst were segmented by using CellProfiler ([178]). Infected nuclei were classified based on the median infection signal per nucleus in CellProfiler. Data were plotted, and the EC50 (infected and treated cells), the TC50 (noninfected, treated cells), as well as the corresponding standard errors (SE) were determined using curve fitting in GraphPad (version 8.1.2; GraphPad Software, Inc.) using three-parameter inhibitor concentration-versus-response nonlinear regression. The mean TI50 was calculated as the […] ratio of the means. The TI50 SE was calculated by error propagation.

Another data set concerns HAdV-B35-pIX-FS2A-GFP. The data set is described as follows: fluorescence-based plaque-forming assay, HBEC. The data set is classed as cell-based, human adenovirus. The procedure:
as §1, §2

A further data set relates to HAdV-C2-dE3B-GFP-dADP. Nature of the data set: fluorescence-based plaque-forming assay, HBEC. It counts as cell-based, human adenovirus. The settings on record: for TI50 (TC50/IC50): HAdV-C2-dE3B-GFP-dADP in HBEC, 4 dpi, GFP. The method, then: as §1, §2
The next data set relates to HAdV-C2-dE3B-GFP. Nature of the data set: fluorescence-based plaque-forming assay, HBEC. The data set is classed as cell-based, human adenovirus. The settings on record: for TI50 (TC50/IC50): HAdV-C2-dE3B-GFP in HBEC, 4 dpi, GFP. The method, then:
as §1, §2

Data set [1] relates to HAdV-C2-dE3B-GFP-infected A549 cells. Nature of the data set: cellular impedance measurement (xCELLigence) of infected A549 cells, delay of cell death. It counts as cell-based, human. The settings on record: 100 μM nelfinavir. The procedure:
Impedance-based assays were performed using the xCELLigence system (Roche Applied Science and ACEA Biosciences) as described previously ([152], [153]), according to the manufacturer’s instructions ([177]), in a cell culture environment (37°C, 5% CO2, and 95% humidity) in duplicates. The 16-well E plates have a gold-plated sensor array embedded in their glass bottom by which the electrical impedance across each well bottom is measured. The impedance per well, termed the cell index (CI), is recorded as a dimensionless quantity. The background CI was assessed following the addition of 50 μl supplemented medium to each well and equilibration in the incubation environment. After 30 min of equilibration, 9,000 A549 cells in 50 μl supplemented medium were added per well, and measurement was started.
For the quantification of nelfinavir effects on the cytopathogenicity of HAdV-C2-dE3B-GFP compared to HAdV-C2-dE3B-GFP-dADP infection, 50 μl of the supernatant was removed 18 h later and replaced with nelfinavir- and virus-supplemented medium. […] The delay of infection-induced cytotoxicity was calculated as the time point at which the CI of the infected cells had decreased by 50% relative to its maximum. […]

Where a name gives a salt, the structure may show the parent alone.

On to `Cc1c(O)cccc1C(=O)N[C@@H](CSc1ccccc1)[C@H](O)CN1C[C@H]2CCCC[C@H]2C[C@H]1C(=O)NC(C)(C)C` [Nelfinavir, Nelfinavir mesylate], for which the “TI50 (TC50/IC50)” value in the data set with HAdV-B3-pIX-FS2A-GFP (HAdV-B3-pIX-FS2A-GFP in HBEC, 8 dpi, GFP) is 1.99; in the data set with HAdV-B35-pIX-FS2A-GFP (HAdV-B35-pIX-FS2A-GFP in HBEC, 6 dpi, GFP), 1.91; in the data set on HAdV-C2-dE3B-GFP-dADP, 4.56; in the data set with HAdV-C2-dE3B-GFP-dADP (listed as nelfinavir) it was 4.6; in the data set on HAdV-C2-dE3B-GFP, 55.18; in the data set with HAdV-C2-dE3B-GFP (listed as nelfinavir), 55.2. Besides, the EC50 (usually the concentration needed to bring the measured effect to its halfway point) in the data set with HAdV-B3-pIX-FS2A-GFP (Human adenovirus sp.) is 6.41 µM; in the data set on HAdV-B35-pIX-FS2A-GFP (Human adenovirus sp.), 6.99 µM; in the data set with HAdV-C2-dE3B-GFP-dADP (Human adenovirus sp.), 2.72 µM; in the data set with HAdV-C2-dE3B-GFP (Human adenovirus sp.), 0.53 µM. In data set [1], the “toxicity in impedance measurement of infected cells” value is “toxic”.
